Measured values taken from US20180230182A1, “HYPERPOLARIZATION OF AMINO ACID RESIDUES FOR PRODUCING HYPERPOLARIZED PEPTIDES” (Cedars-Sinai Medical Center, priority 2017, published 2018).

Assay: 13C hyperpolarization by Para Hydrogen Induced Polarization (PHIP) with Goldman RF transfer sequence
Format: physicochemical
Settings: non-deuterated, natural abundance 13C
Excerpt: Our objective was to test a model system of polarization that can be incorporated into peptide sequence. Dehydroalanine is an unnatural amino acid with a methylene group instead of the normal methyl side chain for alanine. Several publications laid out the framework on synthesizing peptides containing this reactive amino acid side chain double bond. (Okeley N M, Zhu Y, van der Donk W A. Facile Chemoselective Synthesis of Dehydroalanine-Containing Peptides†. Organic Letters. 2000; 2(23):3603-6). The double bond of dehydroalanine is ideally positioned for PHIP to generate a polarized ^13C carboxyl nucleus with the resulting product an alanine amino acid residue. We utilized a purchased chemical equivalent resembling dehydroalanine in a peptide chain with the terminal carboxyl and amine protected by functional groups (FIG. 1). […] The 3JHH scalar coupling (J) constant was kept at 7.47 Hz, the 3JHH value was determined by proton spectroscopy. All measured samples were combined and lyophilized to dryness, then and dissolved in 2.5 mL of diH2O and scanned (^13C spectroscopy) for 17 hours with a repetition time of 50 seconds. […]

Compound: C=C(NC(C)=O)C(=O)OC [MAA, methyl 2-acetamidoacrylate]
- polarization reached with the best set of scalar coupling constants (13C carboxyl carbon of the alanine product after 3 second para-hydrogenation of 24 mM MAA in deuterium oxide, 1.4 mT PHIP instrument): 0.1±0.07%
- maximum polarization from the best sequence (approximated from the Boltzmann thermal equilibrium signal, 13C spectroscopy at 9.4T): ~0.2%
